In patent US20240398783A1, “Compounds and Pharmaceutical Compositions Comprising Inhibitors of Amyloid Peptide Interactions with Glycosaminoglycans, Methods of Treatment and Use Thereof” (Gismo Therapeutics, Inc., priority 2021, published 2024):
Structures can show the parent of a compound that is named as a salt.

target: T1, SAA binding to purified THP-1 cell membranes (Homo sapiens, UniProt P0DJI8); assay: Inhibition of SAA binding to purified cell membranes (ELISA); details: purified cell membranes (THP-1 per Example 54), hydrochloride, read-out: Serum Amyloid A/Membrane Activity (IC-50)
T1 sequence (P0DJI8 19-122): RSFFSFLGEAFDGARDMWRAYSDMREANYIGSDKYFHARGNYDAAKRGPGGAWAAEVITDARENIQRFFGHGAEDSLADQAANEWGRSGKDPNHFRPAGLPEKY
Procedure: THP-1 (human acute monocyte leukemia cell line; ATCC cat. no. TIB-202) cell membranes were prepared by differential centrifugation as follows. THP-1 cell was grown in RPMI 1640 media (GIBCO Cat. No. 21875034, supplemented with 10% FBS) at 37 degree Celsius 5% CO2 atmosphere, harvested, and stored at −80 degree Celsius. Frozen THP-1 cells were homogenized in HEPES-Buffered sucrose (0.32M sucrose, 4 mM HEPES pH7.4, protease inhibitors) with a motor driven glass-teflon homogenizer. After removing nuclear and cell debris by centrifugation of homogenates at 1,000×g for 10 min at 4 degree Celsius, post-nuclear supernatant was centrifuged at 10,000×g for 15 minutes to remove mitochondrial fraction. Resulting supernatant was centrifuged at 100,000×g for 30 minutes to yield the crude membrane pellet. Crude membrane pellet was re-suspended in 0.32M sucrose, then centrifuged again at 100,000 xg for 30 minutes to yield washed membrane pellet. Membrane pellet was resuspended in sterile PBS (pH7.4), quickly frozen and kept in aliquots at −80 degrees Celsius. This preparation contains mostly cell membranes. Protein concentration was measured with BCA protein assay kit (Pierce Cat. No. 23227). The binding assay was performed as described in Example 48, with the following modifications. Following to coating the plates with purified human THP-1 cell membranes at 0.01 mg/ml concentration, plates were washed and blocked with 2% milk as described. The compounds were dissolved in DMSO at 10 mM final concentration and further diluted prior to assay. DMSO concentration in the screening well was up to 2%. Individual compounds were co-incubated with SAA on plates coated with cell membranes. SAA from PreProtech (NJ, USA, Cat. No. 300-53) was dissolved in DMSO, quickly frozen and kept in aliquots at −80 degrees Celsius. SAA dissolved in Tris Buffer (pH 6.5, supplemented with BSA, 0.1%) was added to the ELISA plate (100 μl per well) and incubated for 2 hours at RT with gentle shaking. Following the incubation, the plate was washed with de-ionized water and three times with TBS (pH 6.5) plus Tween. Bound SAA was detected by Anti-SAA Monoclonal Antibody (R&D System Cat. No. MAB30192, followed by secondary anti-IgG antibody conjugated to HRP (R&D System, Cat. No. HAF007). Antibody was diluted in TBS antibody buffer (pH6.5 supplemented with 1% BSA). Following each incubation with antibody, the plate was washed with de-ionized water and three times with TBS (pH6.5) wash buffer containing 0.1% Tween. Following to color development with TMB, as described in Example 49, the Optical Density of the samples was measured at 450 nm using an ELISA plate reader. Following color development, the % inhibition compared to control (no compound, DMSO control) for every compound was determined.
For each compound IC-50 value is shown in μM (micromolar). In some cases IC-50 was not measured and % inhibition at 30 μM compound concentration is shown instead. […] All assays were done on 96-well plates in duplicates and experiments were repeated at least twice. In the Table, the following abbreviations are used: A: compounds that inhibited>30% at 30 μM concentrations; B: compounds that inhibited<30% at 30 μM concentrations; NT: compounds for which inhibition curve was not obtained.

Compound | IC50 [µM]
C/C(=N\Nc1ncnc2cc(Cl)ccc12)c1ccc(-n2cc(C)nc2C)nc1 [Compound 27, (E)-7-chloro-4-(2-(1-(6-(2,4-dimethyl-1H-imidazol-1-yl)pyridin-3-yl)ethylidene)hydrazineyl)quinazoline hydrochloride] | 14

same assay, conditions: purified cell membranes (THP-1 per Example 54), read-out: Serum Amyloid A/Membrane Activity (IC-50)

IC50 [µM] | Compound
13.2 | Clc1ccc2c(Nc3ccc(-n4ccnc4)nc3)ncnc2c1 [Compound 41, N-(6-(1H-imidazol-1-yl)pyridin-3-yl)-7-chloroquinazolin-4-amine]
22.9 | CC(=NNc1ncnc2cc(Cl)ccc12)c1ccnc(-n2cnc(C)c2C)c1 [Compound 28, 7-chloro-4-(2-(1-(2-(4,5-dimethyl-1H-imidazol-1-yl)pyridin-4-yl)ethylidene)hydrazineyl)quinazoline]
12.3 | Cc1cc(-n2ccnc2)ccc1/C=N/Nc1ccnc2cc(Cl)ccc12 [Compound 1, (E)-4-((E)-(4-(1H-imidazol-1-yl)-2-methylbenzylidene)hydrazono)-7-chloro-1,4-dihydroquinoline]
47.8 | C/C(=N\Nc1ncnc2cc(F)ccc12)c1ccc(-n2cnc(C)c2C)nc1 [Compound 21, (E)-4-(2-(1-(6-(4,5-dimethyl-1H-imidazol-1-yl)pyridin-3-yl)ethylidene)hydrazineyl)-7-fluoroquinazoline]

Compound | IC50 [µM]
C/C(=N\Nc1nncc2cc(Cl)ccc12)c1ccc(-n2cc(C)nc2C)nc1 [Compound 24, (E)-6-chloro-1-(2-(1-(6-(2,4-dimethyl-1H-imidazol-1-yl)pyridin-3-yl)ethylidene)hydrazineyl)phthalazine] | 8.22
C/C(=N\Nc1ncnc2cc(Cl)ccc12)c1ccc(-n2cc(C)nc2C)nc1 [Compound 18, (E)-7-chloro-4-(2-(1-(6-(2,4-dimethyl-1H-imidazol-1-yl)pyridin-3-yl)ethylidene)hydrazineyl)quinazoline phosphoric acid salt] | 24

same assay, conditions: read-out: Serum Amyloid A/Membrane Activity (IC-50), purified cell membranes (THP-1 per Example 54)

Compound | IC50 [µM]
C/C(=N\Nc1ncnc2cc(Cl)ccc12)c1ccc(-n2cnc(C)c2C)nc1 [Compound 16, 7-chloro-4-(2-(1-(6-(4,5-dimethyl-1H-imidazol-1-yl)pyridin-3-yl)ethylidene)hydrazineyl)quinazoline phosphate] | 9.93
Cc1ncn(-c2ccc(Nc3ncnc4cc(Cl)ccc34)cn2)c1C [Compound 25, 7-chloro-N-(6-(4,5-dimethyl-1H-imidazol-1-yl)pyridin-3-yl)quinazolin-4-amine] | 22
COc1cc(Nc2nncc3cc(Cl)ccc23)cnc1-n1cnc(C)c1C [Compound 31, 6-chloro-N-(6-(4,5-dimethyl-1H-imidazol-1-yl)-5-methoxypyridin-3-yl)phthalazin-1-amine phosphoric acid salt] | 70.8
Clc1ccc2c(Nc3ccc(-n4cncn4)nc3)ncnc2c1 [Compound 34, N-(6-(1H-1,2,4-triazol-1-yl)pyridin-3-yl)-7-chloroquinazolin-4-amine phosphoric acid salt] | 8.66
Clc1ccc2c(N/N=C/c3ccc(-n4ccnc4)cc3)ccnc2c1 [Compound 38, 4-(2-(4-(1H-imidazol-1-yl)benzylidene)hydrazineyl)-7-chloroquinoline dihydrochloride] | 23.6
COc1cc2nccc(N/N=C/c3ccc(-n4ccnc4)c(OC)c3)c2cc1OC [Compound 13, (E)-4-(2-(4-(1H-imidazol-1-yl)-3-methoxybenzylidene)hydrazineyl)-6,7-dimethoxyquinoline phosphate] | 44.5
Clc1ccc2c(Nc3ccc(-n4cncn4)nc3)ccnc2c1 [Compound 44, N-(6-(1H-1,2,4-triazol-1-yl)pyridin-3-yl)-7-chloroquinolin-4-amine] | 11.4
Clc1ccc2c(N/N=C/c3ccc(-n4ccnc4)nc3)ccnc2c1 [Compound 14, (E)-4-(2-((6-(1H-imidazol-1-yl)pyridin-3-yl)methylene)hydrazineyl)-7-chloroquinoline hydrochloride] | 27.5
CC(=NNc1ccnc2cc(Cl)ccc12)c1ccc(-n2ccnc2)cc1 [Compound 36, 4-(2-(1-(4-(1H-imidazol-1-yl)phenyl)ethylidene)hydrazineyl)-7-chloroquinoline phosphate] | 15.3
Cc1ncn(-c2ccc(/C=N\Nc3ncnc4cc(Cl)ccc34)cn2)c1C [Compound 15, 7-chloro-4-(2-((6-(4,5-dimethyl-1H-imidazol-1-yl)pyridin-3-yl)methylene)hydrazineyl)quinazoline hydrochloride] | 32.5
